Assay results as given in ChEMBL document CHEMBL1201862, “PubChem BioAssay data set” (2004).
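Test compounds were applied to cells in 96-well plates for 48 hours at 5 doses. Abbreviation: GI50, concentration required for 50% inhibition of growth.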 Calls of active or inactive are those of the source. No stated cut-off is given here; in the data, active = GI50 up to about 1.1 µM and inactive = higher.

Legend:
Assay in all cases: growth of human tumour cells (NCI), 48 h
DMS-114 = system: DMS-114
COLO 205 = system: COLO 205
SW-620 = system: SW-620
CAKI-1 = system: CAKI-1
OVCAR-8 = system: OVCAR-8
SK-OV-3 = system: SK-OV-3
786-0 = system: 786-0
SK-MEL-2 = system: SK-MEL-2
MOLT-4 = system: MOLT-4
SN12C = system: SN12C
NCI-H23 = system: NCI-H23
UACC-257 = system: UACC-257
SK-MEL-28 = system: SK-MEL-28
HOP-92 = system: HOP-92
ACHN = system: ACHN
RXF 393 = system: RXF 393
XF498 = system: XF498
OVCAR-5 = system: OVCAR-5
LOX IMVI = system: LOX IMVI
HOP-18 = system: HOP-18
HCC 2998 = system: HCC 2998
NCI-H460 = system: NCI-H460
HOP-62 = system: HOP-62
UACC-62 = system: UACC-62
UO-31 = system: UO-31
DMS-273 = system: DMS-273
HCT-116 = system: HCT-116
Malme-3M = system: Malme-3M
NCI-H522 = system: NCI-H522
A549 = system: A549
DLD-1 = system: DLD-1
HT-29 = system: HT-29
KM-20L2 = system: KM-20L2
OVCAR-3 = system: OVCAR-3
SNB-75 = system: SNB-75
CCRF-CEM = system: CCRF-CEM
SK-MEL-5 = system: SK-MEL-5
IGROV-1 = system: IGROV-1
SF-295 = system: SF-295
OVCAR-4 = system: OVCAR-4
M14 = system: M14
A498 = system: A498
HCT-15 = system: HCT-15
SNB-19 = system: SNB-19
U-251 = system: U-251
K562 = system: K562
NCI-H226 = system: NCI-H226
EKVX = system: EKVX
KM12 = system: KM12
M19-MEL = system: M19-MEL
SNB-78 = system: SNB-78
SF-268 = system: SF-268
HL-60 = system: HL-60
TK-10 = system: TK-10
LXFL 529 = system: LXFL 529
SF-539 = system: SF-539
RXF 631 = system: RXF 631
RPMI-8226 = system: RPMI-8226
SR = system: SR

Structure (SMILES): O=C(Cc1nc2ccccc2s1)C(=O)Nc1ccccc1C(F)(F)F
- GI50 (DMS-114): > 100 µM (inactive)
- GI50 (COLO 205): > 100 µM (inactive)
- GI50 (SW-620): > 100 µM (inactive)
- GI50 (CAKI-1): > 100 µM (inactive)
- GI50 (OVCAR-8): > 100 µM (inactive)
- GI50 (SK-OV-3): > 100 µM (inactive)
- GI50 (786-0): > 100 µM (inactive)
- GI50 (SK-MEL-2): > 100 µM (inactive)
- GI50 (MOLT-4): > 100 µM (inactive)
- GI50 (SN12C): > 100 µM (inactive)
- GI50 (NCI-H23): > 100 µM (inactive)
- GI50 (UACC-257): > 100 µM (inactive)
- GI50 (SK-MEL-28): > 100 µM (inactive)
- GI50 (HOP-92): 20.4 µM (inactive)
- GI50 (ACHN): > 100 µM (inactive)
- GI50 (RXF 393): > 100 µM (inactive)
- GI50 (XF498): > 100 µM (inactive)
- GI50 (OVCAR-5): > 100 µM (inactive)
- GI50 (LOX IMVI): > 100 µM (inactive)
- GI50 (HOP-18): > 100 µM (inactive)
- GI50 (HCC 2998): > 100 µM (inactive)
- GI50 (NCI-H460): > 100 µM (inactive)
- GI50 (HOP-62): > 100 µM (inactive)
- GI50 (UACC-62): > 100 µM (inactive)
- GI50 (UO-31): > 100 µM (inactive)
- GI50 (DMS-273): > 100 µM (inactive)
- GI50 (HCT-116): > 100 µM (inactive)
- GI50 (Malme-3M): > 100 µM (inactive)
- GI50 (NCI-H522): > 100 µM (inactive)
- GI50 (A549): > 100 µM (inactive)
- GI50 (DLD-1): > 100 µM (inactive)
- GI50 (HT-29): > 100 µM (inactive)
- GI50 (KM-20L2): > 100 µM (inactive)
- GI50 (OVCAR-3): > 100 µM (inactive)
- GI50 (SNB-75): 25.1 µM (inactive)
- GI50 (CCRF-CEM): > 100 µM (inactive)
- GI50 (SK-MEL-5): > 100 µM (inactive)
- GI50 (IGROV-1): > 100 µM (inactive)
- GI50 (SF-295): > 100 µM (inactive)
- GI50 (OVCAR-4): > 100 µM (inactive)
- GI50 (M14): > 100 µM (inactive)
- GI50 (A498): > 100 µM (inactive)
- GI50 (HCT-15): > 100 µM
- GI50 (SNB-19): > 100 µM (inactive)
- GI50 (U-251): > 100 µM (inactive)
- GI50 (K562): > 100 µM (inactive)
- GI50 (NCI-H226): > 100 µM (inactive)
- GI50 (EKVX): > 100 µM (inactive)
- GI50 (KM12): > 100 µM (inactive)
- GI50 (M19-MEL): > 100 µM (inactive)
- GI50 (SNB-78): > 100 µM (inactive)
- GI50 (SF-268): > 100 µM (inactive)
- GI50 (HL-60): > 100 µM (inactive)
- GI50 (TK-10): > 100 µM (inactive)
- GI50 (LXFL 529): > 100 µM (inactive)
- GI50 (SF-539): > 100 µM (inactive)

Structure (SMILES): Cc1c2n(c3ccccc13)CC1CON(C)C21 (centres undefined)
- GI50 (DMS-114): > 100 µM (inactive)
- GI50 (COLO 205): > 100 µM (inactive)
- GI50 (CAKI-1): > 100 µM (inactive)
- GI50 (SK-OV-3): > 100 µM (inactive)
- GI50 (786-0): > 100 µM (inactive)
- GI50 (SK-MEL-2): > 100 µM (inactive)
- GI50 (MOLT-4): > 100 µM (inactive)
- GI50 (NCI-H23): > 100 µM (inactive)
- GI50 (SK-MEL-28): > 100 µM (inactive)
- GI50 (HOP-92): > 100 µM (inactive)
- GI50 (RXF 631): > 100 µM (inactive)
- GI50 (HCC 2998): > 100 µM (inactive)
- GI50 (HOP-62): > 100 µM (inactive)
- GI50 (UACC-62): > 100 µM (inactive)
- GI50 (UO-31): > 100 µM (inactive)
- GI50 (DMS-273): > 100 µM (inactive)
- GI50 (HCT-116): > 100 µM (inactive)
- GI50 (Malme-3M): > 100 µM (inactive)
- GI50 (NCI-H522): > 100 µM (inactive)
- GI50 (DLD-1): > 100 µM (inactive)
- GI50 (RPMI-8226): > 100 µM (inactive)
- GI50 (SNB-75): > 100 µM (inactive)
- GI50 (SR): > 100 µM (inactive)
- GI50 (CCRF-CEM): > 100 µM (inactive)
- GI50 (IGROV-1): > 100 µM (inactive)
- GI50 (OVCAR-4): > 100 µM (inactive)
- GI50 (M14): > 100 µM (inactive)
- GI50 (K562): > 100 µM (inactive)
- GI50 (NCI-H226): > 100 µM (inactive)
- GI50 (M19-MEL): > 100 µM (inactive)
- GI50 (SNB-78): > 100 µM (inactive)
- GI50 (SF-268): > 100 µM (inactive)
- GI50 (HL-60): > 100 µM (inactive)
- GI50 (LXFL 529): > 100 µM (inactive)
- GI50 (SF-539): > 100 µM (inactive)

Structure (SMILES): COc1c(-c2ccccc2)nc2ccc(Oc3ccccc3)nn12
- GI50 (DMS-114): > 50.4 µM (inactive)
- GI50 (COLO 205): > 44.7 µM (inactive)
- GI50 (SW-620): > 75.7 µM (inactive)
- GI50 (CAKI-1): > 68.4 µM (inactive)
- GI50 (OVCAR-8): > 64 µM (inactive)
- GI50 (SK-OV-3): > 100 µM (inactive)
- GI50 (786-0): > 61.5 µM (inactive)
- GI50 (SK-MEL-2): > 54 µM (inactive)
- GI50 (MOLT-4): 14.1 µM (inactive)
- GI50 (SN12C): > 56.6 µM (inactive)
- GI50 (NCI-H23): > 49 µM (inactive)
- GI50 (UACC-257): > 54.8 µM (inactive)
- GI50 (SK-MEL-28): > 51.8 µM (inactive)
- GI50 (HOP-92): > 100 µM (inactive)
- GI50 (ACHN): > 58.7 µM (inactive)
- GI50 (RXF 393): > 38.8 µM (inactive)
- GI50 (XF498): 23.8 µM (inactive)
- GI50 (OVCAR-5): > 77.3 µM (inactive)
- GI50 (LOX IMVI): > 72.9 µM (inactive)
- GI50 (HOP-18): > 45.5 µM (inactive)
- GI50 (HCC 2998): > 64.9 µM (inactive)
- GI50 (NCI-H460): 36.6 µM (inactive)
- GI50 (HOP-62): > 100 µM (inactive)
- GI50 (UACC-62): > 69.7 µM (inactive)
- GI50 (UO-31): > 61.8 µM (inactive)
- GI50 (DMS-273): > 57.1 µM (inactive)
- GI50 (HCT-116): 13.2 µM (inactive)
- GI50 (Malme-3M): 37.8 µM (inactive)
- GI50 (NCI-H522): > 100 µM (inactive)
- GI50 (A549): > 57.5 µM (inactive)
- GI50 (DLD-1): 48.3 µM (inactive)
- GI50 (HT-29): 37 µM (inactive)
- GI50 (RPMI-8226): 7.6 µM (inactive)
- GI50 (KM-20L2): > 75 µM (inactive)
- GI50 (OVCAR-3): > 77.6 µM (inactive)
- GI50 (SNB-75): > 57.5 µM (inactive)
- GI50 (SR): 13.8 µM (inactive)
- GI50 (CCRF-CEM): 8.65 µM (inactive)
- GI50 (SK-MEL-5): 33.2 µM (inactive)
- GI50 (IGROV-1): > 93.8 µM (inactive)
- GI50 (SF-295): > 62.8 µM (inactive)
- GI50 (OVCAR-4): > 36.3 µM (inactive)
- GI50 (M14): > 59.8 µM (inactive)
- GI50 (A498): > 41.4 µM (inactive)
- GI50 (HCT-15): 17.7 µM
- GI50 (SNB-19): > 84.5 µM (inactive)
- GI50 (U-251): > 80.5 µM (inactive)
- GI50 (K562): 14.6 µM (inactive)
- GI50 (NCI-H226): 29.7 µM (inactive)
- GI50 (EKVX): > 100 µM (inactive)
- GI50 (KM12): > 54.2 µM (inactive)
- GI50 (M19-MEL): > 64.3 µM (inactive)
- GI50 (SNB-78): > 60 µM (inactive)
- GI50 (SF-268): > 56.4 µM (inactive)
- GI50 (HL-60): 7.33 µM (inactive)
- GI50 (TK-10): > 100 µM (inactive)
- GI50 (LXFL 529): > 38.3 µM (inactive)
- GI50 (SF-539): > 59.4 µM (inactive)
